Laboratory results published in US20190054186A1, “Magnetic Nanoparticle-Polymer Complexes and uses Thereof” (The University of North Carolina at Chapel Hill, priority 2016, published 2019).

Experiments:
[1] = test system: actin cytoskeleton of MDA-MB-231, BT474 and MCF10A cells; test: Actin cytoskeleton confocal imaging after pulsed AC magnetic field; type: cell-based, human; conditions: cancerous cells, CD alone (100 nM)
Protocol: For confocal studies, MDA-MB-231, BT474 and MCF10A cells were plated on Lab-Tek II Chamber slides at a concentration of 1×10^5 cells/well and allowed to grow overnight. The cells were then treated with 0.1 mg/mL Alexa Fluor® 647-PAA-P85-MNP for 24 h followed by thorough washing with acid saline and replacement with complete media. The cells were incubated with 100 nM CD for 1 h to enact cytoskeletal damage in a nonlethal capacity. After washing, the cells were exposed to the pulsed AC magnetic field (50 Hz, 50 kA/m) (10 min on, 5 min off, total exposure 30 min). Appropriate controls included cells not exposed to the magnetic field and untreated cells. Cells were then incubated at 37° C. for 24 h, fixed using 4% paraformaldehyde and permeabilized using 0.5% Triton-X 100. Fixed cells were stained with ActinGreen 488 (Life Technologies, Carlsbad, Calif.), a phalloidin-based actin stain and Hoechst 33342. Images were acquired using a Zeiss CLSM 710 Spectral Confocal Laser Scanning Microscope with the 63×/1.4 Oil Plan Apo lens.

[2] = test system: lysosomes of MDA-MB-231, BT474 and MCF10A cells; test: Lysosomal membrane permeabilization, acridine orange assay; type: cell-based, human; conditions: positive control, 150 μM, three hours, no field
Protocol: MDA-MB-231, BT474 and MCF10A cells were seeded at 1×10^5 cells/well in 8-well Lab-Tek II Chamber slides. Cells were allowed to adhere for several days and were treated with PAA-P85-MNPs at a concentration of 0.1 mg/mL. After 24 h, the cells were washed and then exposed to an AC magnetic field (50 Hz, 50 kA/m) using the pulsed exposure regime for a total of 30 min. Three hours post exposure, cells were treated for 15 min with 10 μg/mL acridine orange stain. The cells were washed 3× with PBS and kept in complete media for imaging. Positive control cells were treated with 150 μM hydrogen peroxide for 3 h followed by thorough washing and staining with acridine orange. Live cell images were acquired using a Zeiss CLSM 710 Spectral Confocal Laser Scanning Microscope with the 63×/1.4 Oil Plan Apo lens.

Compound	actin cytoskeleton structure [1]	lysosomal membrane permeabilization (acridine orange) [2]
C=C1[C@@H](C)[C@H]2[C@H](Cc3ccccc3)NC(=O)[C@]23[C@H](OC(C)=O)/C=C/[C@@](C)(O)C(=O)[C@@H](C)C/C=C/[C@H]3[C@@H]1O [CD, Cytochalasin D]	No significant differences in the cytoskeleton structure	
OO [hydrogen peroxide]		loss of punctuate red fluorescence
